Source: ChEMBL document CHEMBL1201862, “PubChem BioAssay data set” (2004)
Active and inactive are the calls of the source.

Tests used:
[1] = target: G-protein coupled receptor 55 (Homo sapiens, UniProt Q9Y2T6); test: inhibition of LPI-stimulated GPR55 beta-arrestin translocation – imaging, U2OS, beta-arrestin-GFP, LPI agonist, primary screen (AID 2013); format: functional;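 note: antagonist potency measured as reduced agonist-driven arrestin aggregation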
[2] = target: T1, E3 ubiquitin-protein ligase XIAP (Homo sapiens, UniProt P98170); test: Counter Screen using XIAP-Bir3 for Chemical Antagonists of Bir1/2 domains of IAP-family anti-apoptotic proteins. [Related pubchem assays (depositor defined):AID1018, AID1449, AID1514, AID1638, AID1749, AID1750, AID488957, AID488963]
[3] = target: T1, E3 ubiquitin-protein ligase XIAP; test: small molecules displacing peptide from XIAP – biochemical, IAP family, fluorescence polarization (AID 1018); format: functional
[4] = target: Prothrombin (Homo sapiens, UniProt P00734); test: Thrombin 1536 HTS Dose Response Confirmation. [Related pubchem assays: 1046 (Thrombin 1536 HTS; hits were confirmed in this assay)]; format: functional
[5] = Luminescence Cell-Based Dose Retest to Confirm Inhibitors of Cancer Stem Cells. [Related pubchem assays (depositor defined):AID2717, AID2721]; format: functional; details: Homo sapiens
[6] = viability loss of HPDE-C7K cells – cell-based, fluorescence, HTS, primary screen (AID 431); format: functional; details: Homo sapiens
[7] = HPDE-C7 pancreatic duct cell viability loss – fluorescence, HTS (AID 430); format: functional, cell-based; details: Homo sapiens
[8] = test system: H9c2; test: cells; format: functional, cell-based; details: Rattus norvegicus, H9c2, Myocardium;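 note: confirmatory concentration-response retest of ultra-high-throughput screening hits for modulation of myocardial damage; cell death induced by hydrogen peroxide oxidative stress; compound pretreatment for 60 min then peroxide exposure for 2 h; potency is for protecting the cells against peroxide damage rather than for killing them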
[9] = target: T2, Protein skinhead-1 (Caenorhabditis elegans, UniProt P34707); format: functional
T2 sequence (P34707 whole entry): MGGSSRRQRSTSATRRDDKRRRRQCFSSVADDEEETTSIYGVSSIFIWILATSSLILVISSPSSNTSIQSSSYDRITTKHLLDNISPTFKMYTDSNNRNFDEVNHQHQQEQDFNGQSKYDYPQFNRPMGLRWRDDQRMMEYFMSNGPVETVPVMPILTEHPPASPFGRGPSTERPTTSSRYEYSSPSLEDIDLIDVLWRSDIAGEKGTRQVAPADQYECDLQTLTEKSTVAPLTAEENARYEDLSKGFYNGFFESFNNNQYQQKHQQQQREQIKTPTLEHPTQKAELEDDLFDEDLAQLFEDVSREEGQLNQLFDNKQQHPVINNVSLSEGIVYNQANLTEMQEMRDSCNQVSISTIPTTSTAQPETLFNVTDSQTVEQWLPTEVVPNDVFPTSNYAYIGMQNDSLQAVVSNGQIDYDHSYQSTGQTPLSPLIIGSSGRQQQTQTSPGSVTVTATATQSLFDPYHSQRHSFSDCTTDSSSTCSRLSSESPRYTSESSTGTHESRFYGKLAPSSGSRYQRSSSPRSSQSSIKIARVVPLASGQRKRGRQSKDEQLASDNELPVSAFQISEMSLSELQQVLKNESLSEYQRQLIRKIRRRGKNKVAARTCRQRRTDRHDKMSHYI

[10] = target: Eukaryotic translation initiation factor 4E (Mus musculus, UniProt P63073); test: blockers of eIF4G binding by eIF4E – biochemical, TR-FRET, dose response (AID 855); format: functional;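 note: potency for disrupting eIF4E binding to eIF4GI seen as loss of FRET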
[11] = target: Cytochrome P450 2D6 (Homo sapiens, UniProt P10635);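 note: CYP2D6 member of a cytochrome P450 panel assay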
[12] = target: Ephrin type-A receptor 4 (Mus musculus, UniProt Q03137); test: EphA4 ligand-binding antagonists – biochemical, colorimetric, mouse EphA4, primary screen (AID 689); format: functional
Chain of Ephrin type-A receptor 4 (Q03137 whole entry): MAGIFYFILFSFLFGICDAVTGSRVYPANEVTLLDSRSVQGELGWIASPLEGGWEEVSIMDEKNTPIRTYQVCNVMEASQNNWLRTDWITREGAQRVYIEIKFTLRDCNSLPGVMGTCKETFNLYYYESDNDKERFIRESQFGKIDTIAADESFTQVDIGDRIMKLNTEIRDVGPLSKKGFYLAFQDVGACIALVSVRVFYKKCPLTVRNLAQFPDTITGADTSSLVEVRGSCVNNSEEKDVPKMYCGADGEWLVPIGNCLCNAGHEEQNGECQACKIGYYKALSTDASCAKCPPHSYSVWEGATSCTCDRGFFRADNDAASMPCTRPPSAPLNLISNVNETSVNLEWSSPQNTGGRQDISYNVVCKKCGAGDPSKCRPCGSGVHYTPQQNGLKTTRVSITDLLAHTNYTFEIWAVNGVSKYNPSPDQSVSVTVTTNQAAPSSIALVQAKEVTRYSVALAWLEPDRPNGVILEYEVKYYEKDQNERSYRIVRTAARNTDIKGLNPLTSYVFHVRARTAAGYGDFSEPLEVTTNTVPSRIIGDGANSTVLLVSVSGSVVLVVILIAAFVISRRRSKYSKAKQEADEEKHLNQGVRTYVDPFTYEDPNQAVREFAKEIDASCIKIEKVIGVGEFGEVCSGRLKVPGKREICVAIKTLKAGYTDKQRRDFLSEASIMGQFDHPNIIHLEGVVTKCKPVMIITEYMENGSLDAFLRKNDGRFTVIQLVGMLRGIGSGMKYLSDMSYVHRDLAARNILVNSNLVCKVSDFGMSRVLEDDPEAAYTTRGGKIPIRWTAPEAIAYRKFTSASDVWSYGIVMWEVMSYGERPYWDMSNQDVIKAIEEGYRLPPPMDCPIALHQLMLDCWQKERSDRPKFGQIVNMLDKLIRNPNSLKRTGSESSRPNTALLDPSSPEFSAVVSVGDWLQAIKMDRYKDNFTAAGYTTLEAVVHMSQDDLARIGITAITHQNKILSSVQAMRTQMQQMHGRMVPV

T1 sequence (P98170 whole entry): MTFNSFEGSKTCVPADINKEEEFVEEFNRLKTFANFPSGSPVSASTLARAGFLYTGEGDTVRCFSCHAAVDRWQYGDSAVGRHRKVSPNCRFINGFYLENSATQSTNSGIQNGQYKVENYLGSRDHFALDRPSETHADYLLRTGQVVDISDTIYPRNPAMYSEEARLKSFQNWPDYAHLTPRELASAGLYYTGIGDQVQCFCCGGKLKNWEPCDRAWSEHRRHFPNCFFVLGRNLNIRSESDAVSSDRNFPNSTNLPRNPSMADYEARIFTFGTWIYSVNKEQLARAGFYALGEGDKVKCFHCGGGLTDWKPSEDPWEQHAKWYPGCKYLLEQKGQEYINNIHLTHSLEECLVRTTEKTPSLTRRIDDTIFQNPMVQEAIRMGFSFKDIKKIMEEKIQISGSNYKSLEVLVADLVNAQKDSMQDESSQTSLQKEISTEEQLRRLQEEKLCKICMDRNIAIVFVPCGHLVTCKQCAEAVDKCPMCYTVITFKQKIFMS
Chain of Eukaryotic translation initiation factor 4E (P63073 whole entry): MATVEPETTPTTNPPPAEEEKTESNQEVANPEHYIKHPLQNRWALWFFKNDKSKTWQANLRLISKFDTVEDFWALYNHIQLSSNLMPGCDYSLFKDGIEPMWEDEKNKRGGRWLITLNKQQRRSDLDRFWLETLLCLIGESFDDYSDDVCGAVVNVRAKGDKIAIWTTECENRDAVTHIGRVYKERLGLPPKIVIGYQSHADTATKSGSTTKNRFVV
Chain of Cytochrome P450 2D6 (P10635 whole entry): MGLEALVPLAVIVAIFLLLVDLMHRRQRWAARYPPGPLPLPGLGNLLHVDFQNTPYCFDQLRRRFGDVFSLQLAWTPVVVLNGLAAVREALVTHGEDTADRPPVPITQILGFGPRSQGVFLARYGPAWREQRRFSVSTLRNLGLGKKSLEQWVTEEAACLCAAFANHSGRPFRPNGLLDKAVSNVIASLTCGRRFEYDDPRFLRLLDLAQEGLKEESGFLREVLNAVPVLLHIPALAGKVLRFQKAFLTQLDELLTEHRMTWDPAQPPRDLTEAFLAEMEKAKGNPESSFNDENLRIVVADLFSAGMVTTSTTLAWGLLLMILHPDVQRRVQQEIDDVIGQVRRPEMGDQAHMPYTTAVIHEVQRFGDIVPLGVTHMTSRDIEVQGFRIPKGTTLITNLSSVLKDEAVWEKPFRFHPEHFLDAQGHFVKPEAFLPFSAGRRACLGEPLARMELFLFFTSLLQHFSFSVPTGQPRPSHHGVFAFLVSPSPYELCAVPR
Chain of G-protein coupled receptor 55 (Q9Y2T6 whole entry): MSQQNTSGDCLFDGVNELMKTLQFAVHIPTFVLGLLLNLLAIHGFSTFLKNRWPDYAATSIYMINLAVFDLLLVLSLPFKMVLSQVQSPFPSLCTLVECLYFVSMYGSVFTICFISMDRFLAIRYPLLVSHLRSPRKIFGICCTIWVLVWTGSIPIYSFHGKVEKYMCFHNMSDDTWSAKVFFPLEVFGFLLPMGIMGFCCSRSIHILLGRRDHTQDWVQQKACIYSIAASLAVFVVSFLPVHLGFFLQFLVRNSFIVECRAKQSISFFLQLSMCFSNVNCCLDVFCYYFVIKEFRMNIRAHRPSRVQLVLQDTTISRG

Cc1[nH]c2c(Br)cccc2c1[C@H]1[C@@H](CC#N)C1(C)C
IC50 [1]: 1.49 µM (active)

O=C(NCc1nnc(S)n1-c1ccc(F)cc1)c1ccco1
IC50 [2]: > 100 µM (inactive)
IC50 [3]: > 100 µM (not active)

COc1ccc(S(=O)(=O)CCc2nnc(NC(=O)c3cccs3)s2)cc1
IC50 [4]: > 50 µM (not active)

Fc1cccc(COc2ccccc2CNc2ccccc2)c1
IC50 [2]: > 100 µM (inactive)
IC50 [3]: > 100 µM (not active)

O=C(c1cccc([N+](=O)[O-])c1)n1nc(-c2ccccc2)nc1NCc1ccccc1
IC50 [4]: 0.521 µM (active)

O=C1CC(=C(c2ccccc2)c2ccccc2)C(=O)N1CCCCN1CCN(c2cccc(Cl)c2)CC1
IC50 [2]: > 100 µM (inactive)
IC50 [3]: > 100 µM (not active)
AC50 [5]: 624 nM (active)

CCC(=O)N1CCN(c2ccc(NC(=O)c3cc4ccccc4o3)cc2Cl)CC1
EC50 [6]: 10.9 µM (active)
EC50 [7]: 11.5 µM (active)
IC50 [8]: 15.9 µM (active)
IC50 [9]: > 100 µM (inactive)

CCOc1ccccc1NC(=O)C1CCN(S(=O)(=O)c2cccc3cccnc23)CC1
IC50 [10]: > 64 µM (inactive)

CCOc1ccc(/C=C/C2=Cc3c(sc(NC(=O)CSc4nnc(N)[nH]4)c3C#N)C(C)(C)C2)cc1
AC50 [11]: 1.78 µM (inconclusive)
IC50 [12]: 1.79 µM (active)
IC50 [9]: 60.8 µM (inactive)
